Reference: the supplement of paper PMC10307832

Columns and labels:
Experiment in all cases: relative viability (nuclei count vs DMSO), 5 days (fraction); higher = more cells survive
Lestaurtinib + Olaparib = compound: C[C@]12O[C@H](C[C@]1(O)CO)n1c3ccccc3c3c4c(c5c6ccccc6n2c5c31)CNC4=O [Lestaurtinib] + O=C(c1cc(Cc2n[nH]c(=O)c3ccccc23)ccc1F)N1CCN(C(=O)C2CC2)CC1 [Olaparib] (partner 8 µM)
Procedure, shortened: (§1)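 Nuclei were stained with Hoechst during a one-step fixation (final 0.05% Triton X-100, 1% formaldehyde, 1 ug/ml Hoechst) carried out 5 days after dosing, then counted on 4× images. The cells, lung cancer lines in 1536-well plates, had been dosed by pin tool the day after seeding with one drug alone or a fixed anchor-drug dose plus five library-drug doses (not always all listed) in √10 steps. Relative viability is the nuclei count in treated wells divided by that in vehicle wells, and each value is the median of duplicate plates.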

[1] = compound: C[C@]12O[C@H](C[C@]1(O)CO)n1c3ccccc3c3c4c(c5c6ccccc6n2c5c31)CNC4=O [Lestaurtinib] + N=C(N)NC(=N)NCCc1ccccc1 [Phenformin] (partner 250 µM)
Procedure, shortened: as §1

[2] = compound: C[C@]12O[C@H](C[C@]1(O)CO)n1c3ccccc3c3c4c(c5c6ccccc6n2c5c31)CNC4=O [Lestaurtinib] + CC1(C)CCC(c2ccc(Cl)cc2)=C(CN2CCN(c3ccc(C(=O)NS(=O)(=O)c4ccc(N[C@H](CCN5CCOCC5)CSc5ccccc5)c(S(=O)(=O)C(F)(F)F)c4)cc3)CC2)C1 [Navitoclax] (partner 0.5 µM)
Procedure, shortened: as §1

[3] = compound: C1/C(=C\C2=CC=CS2)/C(=O)/C(=C/C3=CC=CS3)/C1 + CC(=O)Nc1cccc(-n2c(=O)n(C3CC3)c(=O)c3c(Nc4ccc(I)cc4F)n(C)c(=O)c(C)c32)c1 [Trametinib] (partner 0.02 µM)
Procedure, shortened: as §1

Row | Cell Line | relative viability (Lestaurtinib + Olaparib; first compound 0.005 µM) | relative viability (Lestaurtinib + Olaparib; first compound 0.01581 µM) | relative viability (Lestaurtinib + Olaparib; first compound 0.05 µM) | relative viability (Lestaurtinib + Olaparib; first compound 0.1581 µM) | relative viability (Lestaurtinib + Olaparib; first compound 0.5 µM) | relative viability ([1]; first compound 0.005 µM) | relative viability ([1]; first compound 0.01581 µM) | relative viability ([1]; first compound 0.05 µM) | relative viability ([1]; first compound 0.1581 µM) | relative viability ([1]; first compound 0.5 µM) | relative viability ([2]; first compound 0.005 µM) | relative viability ([2]; first compound 0.01581 µM) | relative viability ([2]; first compound 0.05 µM) | relative viability ([2]; first compound 0.1581 µM) | relative viability ([2]; first compound 0.5 µM) | relative viability ([3]; first compound 0.2 µM) | relative viability ([3]; first compound 0.6325 µM) | relative viability ([3]; first compound 2 µM) | relative viability ([3]; first compound 6.325 µM) | relative viability ([3]; first compound 20 µM)
1 | LU99A | 0.211 | 0.25 | 0.161 | 0.196 | 0.142 | 0.819 | 0.76 | 0.627 | 0.438 | 0.315 | 0.707 | 0.72 | 0.373 | 0.378 | 0.211 | 0.626 | 0.558 | 0.555 | 0.495 | 0.497
2 | LXF-289 | 1.09 | 1.08 | 0.753 | 0.852 | 0.172 | 0.515 | 0.498 | 0.42 | 0.302 | 0.213 | 0.93 | 0.986 | 0.742 | 0.707 | 0.161 | 0.707 | 0.693 | 0.675 | 0.626 | 0.613
3 | NCI-H23 | 0.327 | 0.295 | 0.291 | 0.301 | 0.203 | 0.835 | 0.756 | 0.762 | 0.813 | 0.457 | 0.862 | 0.84 | 0.918 | 0.784 | 0.422 | 0.411 | 0.406 | 0.4 | 0.369 | 0.365
4 | NCI-H322M | 0.823 | 0.622 |  | 0.765 | 0.521 | 0.689 | 0.694 | 0.478 | 0.517 | 0.393 | 1.28 | 0.977 | 0.563 | 0.463 | 0.461 | 0.519 | 0.494 | 0.474 | 0.433 | 0.517
5 | NCI-H441 | 0.557 | 0.513 | 0.495 | 0.48 | 0.379 | 0.885 | 0.854 | 0.533 | 0.767 | 0.555 | 0.48 | 0.575 | 0.571 | 0.448 | 0.313 | 0.607 | 0.429 | 0.552 | 0.446 | 0.418
6 | NCI-H460 | 0.511 | 0.532 | 0.449 | 0.516 | 0.429 | 0.583 | 0.533 | 0.401 | 0.307 | 0.0805 | 1.37 | 1.01 | 0.694 | 0.894 | 0.544 | 0.158 | 0.305 | 0.163 | 0.0691 | 0.139
7 | NCI-H520 | 0.383 | 0.421 | 0.315 | 0.319 | 0.254 | 0.648 | 0.744 | 0.44 | 0.313 | 0.2 | 1.11 | 1.15 | 1.05 | 0.455 | 0.319 | 0.629 | 0.789 | 0.665 |  | 0.677
8 | NCI-H596 | 0.646 | 0.669 | 0.61 | 0.66 | 0.696 | 0.699 | 0.88 | 0.557 | 0.882 | 0.723 | 0.968 | 0.978 | 0.937 | 1.15 | 0.943 | 0.807 | 0.763 | 0.871 | 0.699 | 0.727
9 | NCI-H647 | 0.67 | 0.67 | 0.186 | 0.211 | 0.108 | 0.354 | 0.444 | 0.181 | 0.11 | 0.104 | 1.08 | 0.945 | 0.572 | 0.465 | 0.116 | 0.464 | 0.49 | 0.407 | 0.467 | 0.447
10 | NCI-H727 | 0.812 | 0.604 | 0.731 |  | 0.678 | 0.475 | 0.655 | 0.648 | 0.515 | 0.298 | 0.502 | 0.478 | 0.489 | 0.332 | 0.185 | 0.379 | 0.414 | 0.373 |  | 0.374
11 | NCI-H838 | 0.911 | 0.796 | 0.549 | 0.348 | 0.162 | 0.508 | 0.543 | 0.475 | 0.227 | 0.131 | 1.21 | 1.05 | 1 | 0.532 | 0.164 | 0.491 | 0.516 | 0.488 | 0.448 | 0.44
12 | NCI-H1355 | 0.804 | 0.754 | 0.563 | 0.566 | 0.369 | 0.455 | 0.465 | 0.374 | 0.391 | 0.263 | 0.908 | 0.889 | 0.73 | 0.457 | 0.459 | 0.42 | 0.43 | 0.457 | 0.341 | 0.407
13 | NCI-H1395 | 0.498 | 0.494 | 0.426 | 0.406 | 0.369 | 0.451 | 0.432 | 0.422 | 0.484 | 0.312 | 1.38 | 1.28 | 1.06 | 0.912 | 0.413 | 1.13 | 0.996 | 1.08 | 0.88 | 1.09
14 | NCI-H1437 | 0.671 | 0.662 | 0.571 | 0.67 | 0.553 | 0.343 | 0.349 | 0.241 | 0.292 | 0.16 | 1.13 | 1.2 | 1 | 1.02 | 0.689 | 0.51 | 0.52 | 0.442 | 0.461 | 0.428
15 | NCI-H1650 | 0.596 | 0.79 | 0.787 | 1.22 | 0.631 | 0.419 | 0.511 | 0.424 | 0.373 | 0.151 | 1.24 | 1.37 | 1.31 | 1.56 | 0.503 | 0.619 | 0.679 | 0.548 | 0.627 | 0.516
